Data published in patent US20220096516A1, “OLIGONUCLEOTIDE MOLECULE AND APPLICATION THEREOF IN TUMOR THERAPY” (Ractigen Therapeutics, priority 2019, published 2022).
d = 2'-deoxy (DNA); r = 2'-OH (RNA)

System: U87MG transplanted tumor
Test: U87MG transplanted tumor growth in nude mice
Parameters: species or system BALB/c nude mice
Conditions: U87MG xenograft, day 13; saRNA (in vivo-jetPEI) 1 mg/kg intratumor days 1, 4, 7, 10; regorafenib 3 mg/kg intragastric daily day 1-12; control 406%
Experimental: To prepare the saRNA formulation, in vivo-jetPEI (201-10G, Polyplus-transfection, France) was adopted as an saRNA delivery system. The preparation process is briefly described as follows: an saRNA was first diluted in a 10% glucose solution to give a solution A; a required amount of in vivo-jetPEI was diluted in 10% glucose solution to give a solution B; then, equal volumes of the solution A and the solution B were mixed (nitrogen-to-phosphorus ratio: 8; final concentration of glucose: 5%). After mixing the mixture was let to stand under room temperature for 15 minutes for later use.
The glioma cell line U87MG were grown to the logarithmic phase, counted, then subcutaneously inoculated at a concentration of 9×10^7 cells/mL into the right armpit of BALB/c nude mice at 0.1 mL per mouse. […] After the initial administration, the long diameter and short diameter of each tumor were measured with a vernier caliper every two days. The tumor volume was calculated according to the formula V=(l×w^2)/2, wherein 1 represents the longest diameter of the tumor and w represents the diameter parallel to the surface of the tumor and perpendicular to the long diameter. A tumor growth curve and size and morphology of the tumor anatomy were recorded during the administration.

Substance: RAG7-133: saRNA duplex; sense GCUCUUUGUCCGCUGAUCUTT (SEQ ID NO: 1), antisense AGAUCAGCGGACAAAGAGCTT (SEQ ID NO: 165) (sugars from the 5' end r19 d2, backbone not given here)
- tumor volume increase compared with that at the beginning of treatment: 167%
